Reference: patent US9422235B2, “Sulfonamide derivatives with therapeutic indications” (Pharmos Corporation, priority 2006, dated 2016)
Like-named read-outs stand apart in the source and are kept apart here.

Tests used:
human CB2 receptor = human CB2 receptor (Homo sapiens (Human), UniProt P34972); assay: [35S]GTPγS-binding assay, functional activity at the human CB2 receptor; assay type: biochemical
Procedure: Functional activity of compounds of the invention toward the cannabinoid receptors was determined by stimulation of [^35S]-GTPγS binding using membranes from HEK-293 cells expressing the hCB1 receptor and membranes expressing the hCB2 receptor derived from either Sf9 (PerkinElmer) or from HEK-293 cells. Activities were compared to that of the known cannabinoid full agonist CP55940 (Alexis). The purpose of this experiment is to determine the potency of the compounds of the invention as agonists or antagonists toward each of the receptor tested.
[^35]-GTPγS binding reactions were performed at 30° C. in 96-well plates containing 5-10 μg membrane protein suspended in 0.1 ml binding buffer (20 mM HEPES-NaOH, pH 7.4, 5 mM MgCl2, 100 mM NaCt, 0.2% (w/v) bovine serum albumin) supplemented with 50 μM GDP and 0.06 nM-10 μM of the compound being tested. Binding was initiated by the addition of [^35S]GTPγS (0.3 nM final concentration). Incubations were performed for 90 minutes and were terminated by filtration on GF/C filter plates (PerkinElmer). Filters were washed ten times with ice-cold wash buffer (20 mM HEPES-NaOH, pH 7.4, 10 mM sodium pyrophosphate). Non-specific binding was measured in the presence of 15 μM GTPγS.
Assays were performed in duplicates. Data was analyzed by plotting on the X axis the log concentration against percent of specific [^35S]GTPγS binding out of basal [^35S]GTPγS binding on the Y axis, non-linear regression is then performed using GraphPad Prism, version 3.0 (GraphPad, San Diego, Calif.) to calculate the EC50 and Emax of the compound. The EC50 value represents the concentration at which there is 50% [^35S]GTPγS binding and the Emax value the upper plateau of the curve.
CP55940 is a full agonist of the human and rat CB2 receptors. […] Full or partial agonism at the receptor was determined relative to the Emax value of CP55940.

Male Sprague Dawley rats = assay: Chronic inflammatory pain, intra-articular CFA in knee, weight bearing; assay type: in vivo, rat
[1] = read-out: % Activity (relative to CP55,940)
[2] = Cell line C2-4, Emax of compound divided by Emax of CP55940, read-out: % Activity (relative to CP55,940)
[3] = Cell line C2-4, upper plateau of [35S]GTPγS binding curve
[4] = Cell line C2-4, upper plateau of [35S]GTPγS binding curve, read-out: Emax (%)

Chain of human CB2 receptor (P34972 whole entry): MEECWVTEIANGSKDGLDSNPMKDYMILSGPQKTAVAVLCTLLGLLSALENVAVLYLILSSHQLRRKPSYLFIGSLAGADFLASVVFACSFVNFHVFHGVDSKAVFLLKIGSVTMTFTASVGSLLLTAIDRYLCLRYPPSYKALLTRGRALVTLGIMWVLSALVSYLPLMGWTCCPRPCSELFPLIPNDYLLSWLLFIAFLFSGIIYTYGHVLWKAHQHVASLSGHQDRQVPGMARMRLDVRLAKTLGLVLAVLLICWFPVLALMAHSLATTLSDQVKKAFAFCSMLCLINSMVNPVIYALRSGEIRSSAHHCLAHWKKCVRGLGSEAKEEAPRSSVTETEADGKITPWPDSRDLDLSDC

Q: O=S(=O)(NCC1CCOCC1)c1ccc(Nc2ccc(Cl)cc2Cl)cc1C(F)(F)F [Compound 35, 4-(2,4-Dichloro-phenylamino)-N-(tetrahydro-pyran-4-ylmethyl)-2-trifluoromethyl-benzenesulfonamide] was tested. Which Emax (human CB2 receptor) did it give?
A: 19%

Q: What about the Emax (human CB2 receptor; [1]) of the same compound?
A: 35%

Q: And the “reversal of the CFA induced hypersensitivity (weight bearing)” value (Male Sprague Dawley rats; 15 mg/kg, b.i.d, three days of administration)?
A: significant reversal

Q: O=S(=O)(NCC1CC1)c1ccc(NC2CCCCCCC2)cc1C(F)(F)F [Compound 88, 4-Cyclooctylamino-N-cyclopropylmethyl-2-trifluoromethyl-benzenesulfonamide] was tested. Which Emax (human CB2 receptor; [2]) did it give?
A: 9.8%

Q: What about the “Emax (%)” value (human CB2 receptor; [3]) of the same compound?
A: 5%

Q: For O=S(=O)(NCC1CC1)c1ccc(NC2CCCCCC2)cc1C(F)(F)F [Compound 87, 4-Cycloheptylamino-N-cyclopropylmethyl-2-trifluoromethyl-benzenesulfonamide], which Emax (human CB2 receptor) is on record?
A: 21%

Q: And the Emax (human CB2 receptor; [1])?
A: 29%

Q: For COc1ccc(Nc2ccc(S(=O)(=O)NCC3CC3)c(C(F)(F)F)c2)c(OC)c1 [Compound 44, N-cyclopropylmethyl-4-(2,4-dimethoxy-phenylamino)-2-trifluoromethyl-benzenesulfonamide], which Emax (human CB2 receptor) is on record?
A: 5%

Q: What about the Emax (human CB2 receptor; [1]) of the same compound?
A: 9.8%

Q: Which Emax (human CB2 receptor) does the source give for CCCCCCC(C)(C)c1ccc([C@@H]2C[C@H](O)CC[C@H]2CCCO)c(O)c1 [CP55940, reference compound] here?
A: 50 to 70%

Q: For O=S(=O)(NCC1CCCO1)c1ccc(NC2CC3CCC2C3)cc1C(F)(F)F (centres unmarked) [Compound 26, 4-(Bicyclo[2.2.1]hept-2-ylamino)-N-(tetrahydro-furan-2-ylmethyl)-2-trifluoromethyl-benzenesulfonamide], which Emax (human CB2 receptor; [2]) is on record?
A: 35%

Q: And the Emax (human CB2 receptor; [4])?
A: 19%

Q: Which Emax (human CB2 receptor) does the source give for CC(C)(NS(=O)(=O)c1ccc(NC2CC3CCC2C3)cc1C(F)(F)F)C1CC1 (centres unmarked) [Compound 74, 4-(Bicyclo[2.2.1]hept-2-ylamino)-N-(1-cyclopropyl-1-methyl-ethyl)-2-trifluoromethyl-benzenesulfonamide] here?
A: 30%

Q: What about the Emax (human CB2 receptor; [1]) of the same compound?
A: 45%

Q: Which Emax (human CB2 receptor; [2]) does the source give for CC(C)(NS(=O)(=O)c1ccc(NC2CCCCC2)cc1C(F)(F)F)C1CC1 [Compound 108, 4-Cyclohexylamino-N-(1-cyclopropyl-1-methyl-ethyl)-2-trifluoromethyl-benzenesulfonamide] here?
A: 49.3%

Q: What about the “Emax (%)” value (human CB2 receptor; [3]) of the same compound?
A: 39%

Q: Which Emax (human CB2 receptor) does the source give for O=S(=O)(NCC1CC1)c1ccc(NN2CCCCCC2)cc1C(F)(F)F [Compound 105, 4-(Azepan-1-ylamino)-N-cyclopropylmethyl-2-trifluoromethyl-benzenesulfonamide] here?
A: 34%

Q: And the Emax (human CB2 receptor; [1])?
A: 43%

Q: How did the Emax (human CB2 receptor; [2]) turn out when O=S(=O)(NCC1CCOCC1)c1ccc(NC2CC3CCC2C3)cc1C(F)(F)F (centres unmarked) [Compound 41, 4-(Bicyclo[2.2.1]hept-2-ylamino)-N-(tetrahydro-pyran-4-ylmethyl)-2-trifluoromethyl-benzenesulfonamide] was run?
A: 36%

Q: What about the Emax (human CB2 receptor; [4]) of the same compound?
A: 26%

Q: And the “analgesic effect (% reversal)” value (Male Sprague Dawley rats; 15 mg/kg b.i.d., day 1 and 2 post administration)?
A: 30%

Q: O=S(=O)(NCC1CC1)c1ccc(Nc2ccc(Cl)cc2Cl)cc1C(F)(F)F [Compound 3, N-Cyclopropylmethyl-4-(2,4-dichloro-phenylamino)-2-trifluoromethyl-benzenesulfonamide] was tested. Which Emax (human CB2 receptor) did it give?
A: 30%

Q: And the Emax (human CB2 receptor; [1])?
A: 46%
